Results published in US20190309066A1, “COMBINATION THERAPY FOR THE TREATMENT OF SOLID AND HEMATOLOGICAL CANCERS” (Arch Oncology, Inc., priority 2017, published 2019).
Several values for one entry are separate records, joined by “and”; a condition that tells them apart may be missing. Identical values can stand only once.

Tested on: RPMI-8226 tumors
Test: RPMI-8226 multiple myeloma xenograft in NSG mice
Assay type: in vivo, mouse
Source text: The purpose of this experiment was to evaluate the efficacy of anti-CD47 antibodies as a single agent and in combination with the proteasome inhibitor Bortezomib in the tumor growth inhibition in vivo in a xenograft mouse model of multiple myeloma. RPMI-8226 human multiple myeloma cells (ATCC #CCL-155, Manassas, Va.) were maintained in RPMI-1640 (Lonza; Walkersville, Md.) supplemented with 10% Fetal Bovine Serum (FBS; Omega Scientific; Tarzana, Calif.) and 1% Penicillin/Streptomycin (Corning, Manassas, Va.) within a 5% CO2 atmosphere. Cultures were expanded in tissue culture flasks.
Female NSG (NOD-Cg-Prkdc^scidI12rg^tm1Wjl/SzJ) were obtained from Jackson Laboratory (Bar Harbor, Me.) at 5-6 weeks of age. Mice were acclimated prior to handling and housed in microisolator cages (Lab Products, Seaford, Del.) under specific pathogen-free conditions. Mice were fed Teklad Global Diet® 2920× irradiated laboratory animal diet (Envigo, Formerly Harlan; Indianapolis, Ind.) and provided autoclaved water ad libitum. All procedures were carried out under the institutional guidelines of Translational Drug Development Institutional Animal Care and Use Committee (Protocol #18105). Animals were identified using transponders.
Female NSG mice were inoculated subcutaneously in the right flank with 0.1 mL of a 30% RPMI/70% Matrigel™ (BD Biosciences; Bedford, Mass.) mixture containing a suspension of 1×10^7 RPMI-8226 tumor cells. Fifteen days following inoculation, mice were randomized Test articles human IgG2 (hIgG2), an anti-CD47 antibody, and Bortezomib (LC Labs, Woburn, Mass.) were administered by intravenous (IV) injection. hIgG2 and anti-CD47 mAb were dosed on Days 0, 7, 14, 21, 28, and 35, while Bortezomib was dosed on Days 1, 4, and 12. as described below in Table 12.
Mean tumor growth inhibition (TGI) was calculated for Day 48 (the final day all mice were on study) utilizing the following formula.
The mean TS of each group was calculated and reported.
All statistical analyses in the xenograft study were performed with Prism GraphPad® software. Differences in Day 48 tumor volumes were confirmed using a one-way ANOVA, unpaired, parametric with the Tukey's Multiple Comparison test with Welch's correction. A two-tailed Student's t-test with Welch's correction was also used to verify any differences between each group and the vehicle control.
For statistical analysis purpose, any mouse sacrificed as an long term survivor (LTS) was assigned a death day of Day 99.

## CC(C)C[C@H](NC(=O)[C@H](Cc1ccccc1)NC(=O)c1cnccn1)B(O)O [Bortezomib]
Bortezomib 1 mg/kg
  Mean Day of Survival Days ± SEM: 76.8 ± 1.6 days
  Median Day of Survival (Min-Max): 78 (70-84) Days
Bortezomib 1 mg/kg IV
  Day 48 Mean Tumor Volume (mm^3): 177 ± 20 mm^3
Bortezomib 1 mg/kg IV monotherapy
  tumor shrinkage (in words): no tumor shrinkage was recorded
Bortezomib 1 mg/kg IV, vs hIgG2 control
  Day 48 % TGI: 96.2% and 96.2 (10) %
P value, Bortezomib 1 mg/kg
  Day 48 Outcome (ANOVA), tumor volume vs hIgG2 (Group 1): P < 0.05
  Day 48 Outcome (Student's t-test), tumor volume vs hIgG2 (Group 1): P < 0.05
  Survival Log-Rank Outcome vs hIgG2 (Group 1): P < 0.05
